According to patent US6060481A, “Method for improving insulin sensitivity using an adenosine receptor antagonist” (priority 1999, dated 2000):

How the values were obtained:
insulin receptor kinase = test: Insulin receptor kinase assay of partially purified receptors from gastrocnemius of treated rats; type: in vivo, Zucker rats
Method: BWA1433 was administered as previously described, in a suspension of 7 mg/ml methyl cellulose containing 10 mg/ml BWA1433. BWA1433 was supplied as a free acid from Glaxo-Wellcome but was adjusted to pH 8.0 with NaOH prior to use. In this way, treated animals were given 12 mg/kg BWA1433 every 12 hours (±1 hour) for one week.
Insulin receptors were prepared from 100 mg frozen powdered skeletal muscle using lectin affinity chromatography, as taught by Caro, J. Clin. Invest., 79:1330-1337 (1987). Supernatants from detergent (Triton X-100) solubilized muscle were cycled over 0.3 ml bed volume wheat germ agglutinin agarose (WGA) columns, after which the columns were washed thoroughly overnight. The receptors were eluted in one ml of buffer containing 25 mM N-[2-hydroxyethyl]piperazine-N'-[2-ethanesulfonic acid] (HEPES) (pH 7.6), 55 mM NaCl, 11.25 mM KCI, 0.5 mM CaCl2, 0.5 mM MgCl2, 0.5 mM Na3 VO4, 5 mM NaF, 10% glycerol, 0.05% Triton X-100, and 300 mM-acetyl-D-glucosamine. WGA column eluates were aliquoted to avoid multiple freezing/thawing and were stored at -70° C. until use. Columns were thoroughly washed (50-100 bed volumes wash buffer) and reused. Receptors were quantitated by assaying protein and immunoblotting to specifically assess insulin receptor protein.
Insulin receptor kinase activity was determined using a modification of previously published techniques by Debant, et al., Am. […] Papers were blotted, oven-dried, and radioactivity determined by scintillation counting using a Beckman Model LS3801 scintillation counter. Activity was calculated in mUnits receptor kinase/mg of WGA eluate protein. […]
Insulin receptor kinase activity was measured 1) in the basal state in non-insulin-injected animals, 2) in insulin-injected animals without added insulin, and 3) in receptors isolated from insulin injected animals but stimulated in vitro with 1 μM exogenous insulin. […] Intravenous insulin-injection increased the observed activity of the insulin receptor kinase 7- to 12-fold when measured in the absence of insulin added in vitro (FIG. 4A). […]

[1] = tested on: whole body glucose uptake; test: Euglycemic hyperinsulinemic clamp, whole body glucose disposal and IMGU; type: in vivo, Zucker rats
Method: In this example, 6-8 week old lean and obese female animals were used. Each group received either vehicle or vehicle plus 1,3-dipropyl-8-(p-acrylic)phenylxanthine (BWA1433) (12 mg/kg every 12 h) for one week prior to the start of the experimental protocol, as described by Xu, et al., Am. J. Physiol., 274 (Endocrinol. Metab. 37): E271-E279 (1988). The vehicle in this case was 10 mg/ml methyl cellulose in H2 O. The final dose of BWA1433 or vehicle was administered approximately 1 h prior to the start of the experimental protocol.
After samples were obtained for basal metabolic determinations, a euglycemic hyperinsulinemic clamp was performed. Regular human insulin (Eli Lilly, Indianapolis, Ind.) was infused intravenously at a rate of 100 mU·min^-1 ·kg^-1 for 3 h. This infusion rate has been previously determined to result in steady-state plasma insulin concentrations of approximately 5,000 uU/ml, as reported in Lang, et al., Endocrinology, 130:43-52 (1996); Lang, Am. J. Physiol., 263 (Endocrinol. Metab. 26): E703-E711 (1992); and Lang, et al., Metabolism, 39:1096-1107 (1990). […] Tritiated glucose was not infused during the hyperinsulinemic clamp, because preliminary studies indicate that this insulin infusion rate completely suppresses endogenous glucose appearance in both obese and lean animals.
During the hyperinsulinemic clamp, blood glucose concentrations were determined at 10-min intervals using the YSI glucose analyzer (Yellow Springs, Ohio). Glucose specific activity was determined on neutralized supernatants of deproteinized plasma as taught by Lang, Am. J. Physiol, 263 (Endocrinol. Metab. 26): E703-D711 (1992). Tissue samples (600-900 mg wet wt) were immersed in ice-cold 0.5 N PCA, homogenized, and centrifuged. The concentration of phosphorylated 2-DG in tissues was calculated as the difference between total ^14 C-radioactivity of the neutral extract and the ^14 C-radioactivity remaining after Somogyi treatment as described in detail by Lang CH, Dobrescu C, and Meszaros K., Metabolism 39:1096-1107 (1990).
Rates of whole body glucose appearance (Ra) and disappearance (Rd) are calculated using the steady-state equations of Steele, Ann. NY Acad. Sci., 82:420-430 (1959). The glucose metabolic clearance rate (MCR) is calculated by dividing the glucose Rd by the prevailing glucose concentration. Since the prevailing insulin levels during the hyperinsulinemic clamp completely suppress endogenous glucose production, the rate of whole body glucose disposal equals the exogenous glucose infusion rate. The increment in insulin-stimulated glucose uptake (IMGU) for each animals is calculated by subtracting the basal endogenous glucose Ra from the measured rate of glucose disposal determined during the last 40 min of the clamp. In vivo glucose uptake for each tissue examined is calculated based on the accumulation of phosphorylated 2-DG by a respective tissue, the integrated 2-DG:glucose ratio in the plasma during the 40-min labeling period, and the lumped constant as described by Lang, Endocrinology, 128:645-653 (1991).

CCCn1c(=O)c2[nH]c(-c3ccc(C=CC(=O)O)cc3)nc2n(CCC)c1=O [BWA1433, 1,3-dipropyl-8-(p-acrylic)phenylxanthine]
Insulin receptor kinase activity (insulin receptor kinase; lean rats, insulin in vivo plus 1 μM insulin in vitro): no significant influence | Insulin receptor kinase activity (insulin receptor kinase; obese animals, insulin injected in vivo, no insulin added in vitro): small but significant increase | Insulin receptor kinase activity (insulin receptor kinase; obese rats, insulin in vivo plus 1 μM insulin in vitro): increased | Change in IMGU ([1]; lean Zucker rats): No change | Decrease in whole body glucose disposal ([1]; lean animals, hyperinsulinemic clamp): 16% | Average plasma glucose concentration during final hour of clamp ([1]; lean rats): 5.4 ± 0.1 mM | Average plasma glucose concentration during final hour of clamp ([1]; obese rats): 5.5 ± 0.1 mM | Increase in IMGU compared to vehicle-treated obese animals ([1]; obese rats): more than 6 fold | Increase in rate of whole body glucose uptake compared to untreated obese rats ([1]; obese rats, hyperinsulinemic clamp): 88% | Whole body glucose uptake rate lower than in lean control animals ([1]; treated obese animals versus lean control): approximately 50%
